# Reference: patent publication EP2423217A1, “Peptide and protein affinity tag from mistic protein” (Forschungsverbund Berlin E.V., priority 2010, dated 2012)
# Where no end group is shown, it is not given here.
# Assays:
# MB peptide [1] = biological target: T1, MB peptide (Bacillus subtilis, UniProt Q5BU39); assay: CD spectroscopy of MB oligomerization at different pH values; assay type: physicochemical; design: made in house; settings: for ratio 208 nm / 222 nm: 154 mM NaF; for oligomer state: AUC and CD spectroscopy
# From the text: The MB monomer is mostly unfolded (~70% random coil), whereby the MB tetramer forms an α-helix. […] This pH sensitive switchability is reversible and occurs completely and suddenly from pH 6.0 to 5.4.
# • Figure 1: Molecular model of the secondary protein structure of the helical MB peptide. Hydrophobicity of the peptide MB is also indicated by differential after folding into an ideal helix. Hydrophilic groups are indicated with arrows from above, hydrophobic groups from below. (A) The hydrophobic areas in which the binding takes place. (B) View of the backside. • Figure 2: CD spectroscopy of MB at different pH values. Circular ellipticity of 50 µM MB at 208 nm or 222 nm was measured against buffer pH in 10 mM citrate or 10 mM phosphate buffer with 154 mM NaF at 20°C. Citrate buffer was applied for the pH range from pH 6.5 to 4 and phosphate buffer for the pH ranges 1.5 to 4 and 6.5 to 10. MB structure was uninfluenced by buffer type, because CD spectra in citrate buffer were equal to spectra in phosphate buffer in the overlapping pH regions. The wavelengths 208 nm and 222 nm are characteristic for α-helices. […] (A) The snapshots of the same membrane repeatedly hybridised (left) and regenerated (right) show similar results after each of the six repetitions. […] (B) Plot of the normalized median intensities of each spot against number of incubations. • Figure 4: Mutation analysis of the amino acids important in oligomerization. […] The amino acids numeration is shown as small numbers above the wild type letters, the wt sequence can be found in the middle (black frame). Letters listed vertically above the wt sequence intensify the interactions, letters below weaken or abolish. The bigger the letter size the stronger the influence, linear to the distance of the intensity to the wt mean intensity in times of SD, starting with a minimum of ±2 SD. • Figure 5: Summary of the single-point mutation and length analysis of the MB oligomerization (A) Single-point mutations substantially (p<0.05) influencing the oligomerization were grouped and are represented by bars above or below the wild type sequence (black frame).The amino acids numeration is shown as small numbers above the wild type letters. Bars above the wild type sequence signify an enhanced oligomerization and below a weakened or abolished. The bar size reflects the strength of the mutation's influences on the oligomerization. […] Amino acid positions which were especially mutation-susceptible are marked by a + or -. (B) MB was systematically truncated with a step size of two amino acids from either one of the termini or simultaneously both termini. The shortest still with TAMRA-MB oligomerizing truncates are shown in black frames.
# In order to assess the oligomerization properties of MB peptide circular dichroism spectroscopy (CD spectroscopy) was carried out according to standard procedures. The MB tetramerization was triggered by acidic pH values while remaining unchanged in basic conditions. Starting from basic pH 10 down to slightly acidic pH 6 the structure of MB was invariable at constant concentrations. Between pH 6 to 5.4 a rapid and tremendous increase in helicity occurred. Below pH 5.4 the pronounced α-helical MB structure remained constant down to pH 1.5 (see Fig. 2).
# physchem = settings: aqueous buffer
# MB peptide [2] = biological target: T1, MB peptide; assay: Temperature dependence of MB peptide tetramerization; assay type: physicochemical; design: made in house
# Procedure: The tetramerization of MB peptide is however dependent on temperature and the salt concentration of the buffer. In general, the proportion of MB peptide forming a tetramer is reduced with increasing temperature. At approximately 70°C, only monomers of the MB peptide are present. As the salt concentration increases, the tetramerisation increases accordingly at neutral pH values.
# MB peptide [3] = biological target: T1, MB peptide; assay: SPOT hybridization with TAMRA-MB: regeneration and reversibility; assay type: binding; design: made in house; host or cells: chemical SPOT synthesis on membrane (MultiPep synthesizer); settings: 25 µM MB in 114 mM phosphate buffer with 50 mM NaF at pH 2.8, over night at 4°C; eight spots
# Procedure: A SPOT-analysis was carried out in order to assess oligomerization of the MB peptide and its ability to tether molecules. This approach is analogous to that of affinity chromatography, in that a solid phase-bound synthesized MB peptide is used to bind and isolate a molecule of interest that is tagged with the protein affinity tag of the present invention.
# The nitrocellulose membrane which contained the MB peptide was incubated, and thus hybridized, with TAMRA-MB (MB peptide to which the TAMRA colouring agent has been covalently attached). If the spots remained coloured after washing an oligomerisation was judged to have taken place. Solid-phase bound MB peptide was synthesized directly on the membranes. Whatman 50 filter paper (Whatman GmbH, Dassel, Germany) was used for membrane-bound peptide synthesis. SPOT positions with a diameter of 3 mm were defined by treating isolated locations on the membrane with coupling reagents. The membrane bound peptides were assembled by the SPOT synthesizer MultiPep (Intavis Bioanalytical Instruments AG, Köln, Germany) according to standard protocols.
# Spotted membranes were washed and blocked according to standard protocols before hybridization. After rinsing once with incubation buffer membranes were hybridized with TAMRA-MB over night at 4 °C under agitation. Incubation results were documented by scanning the membranes with a HP scanjet at 600 dpi. […]
sequence,measurement,setting,value
MKVTSEEKEQLSTAIDRMNEGLDAFIQLYNES [MB peptide],pH range of switch from monomer to α-helical tetramer (increase in helicity),"MB peptide [1]; 50 µM MB, 10 mM citrate or 10 mM phosphate buffer with 154 mM NaF, 20°C",6 to 5.4
same,random coil,MB peptide [1]; MB monomer,~ 70%
same,ratio 208 nm / 222 nm,"MB peptide [1]; pH<5.4, 50 µM MB, 20°C",0.93
same,ratio 208 nm / 222 nm,"MB peptide [1]; pH>6, 50 µM MB, 20°C",2.18
same,oligomer state,"MB peptide [1]; same concentration (50 µM), pH <5.4",converts completely into tetramer
same,oligomer state,MB peptide [1]; up to 50 µM in phosphate buffer at pH 6.5,remains purely as monomer
same,solubility,physchem,≥ 2200 µM
same,temperature at which only monomers are present,MB peptide [2],approximately 70 °C
same,consecutive incubations and regenerations with reproducible oligomerization,MB peptide [3],six
